In one data set the test system is liver esterase. In words: Half-life catalyzed by Pig Liver Esterase. The class given is ADME, Sus scrofa.
The target of data set [1] is Human immunodeficiency virus 1. In words: tested for its anti-HIV activity.
The test system of a further data set is ATH-8 cell line. Description: tested for cytotoxicity of HIV-1 replication in ATH-8 cells. The class given is functional, Homo sapiens.

SMILES strings stand for the structures.

By half-life is commonly meant how long it takes for the measured level to halve. A higher half-life goes with slow decline. Consider `COC(=O)C(C)NP(=O)(OC/C=C\Cn1cnc2c(N)ncnc21)Oc1ccccc1` (configuration not stated), for which, in the data set on liver esterase, the half-life is 43.5 h.

In turn, `COC(=O)C(C)NP(=O)(OCC=C=Cn1cnc2c(O)ncnc21)Oc1ccccc1` (configuration not stated) showed a half-life in the data set on liver esterase of 8.5 h.

The term EC50 denotes the concentration needed to bring the measured effect to its halfway point. Read a low EC50 as greater potency. In data set [1], `Nc1ncnc2c1ncn2C/C=C/CCOCP(=O)(O)O` returned an EC50 of 9 µM.

As to `COC(=O)C(C)NP(=O)(OC/C=C\Cn1cnc2c(O)ncnc21)Oc1ccccc1` (configuration not stated), the half-life in the data set with liver esterase is 58.3 h.

Turning to `COC(=O)C(C)NP(=O)(OCC=C=Cn1cnc2c(N)ncnc21)Oc1ccccc1` (configuration not stated), the half-life in the data set with liver esterase was 7.3 h.

In turn, `COC(=O)C(C)NP(=O)(OC/C=C/Cn1cnc2c(N)ncnc21)Oc1ccccc1` (configuration not stated) had a half-life in the data set on liver esterase of 57.1 h. In addition, the Cytotoxicity with ATH-8 cell line is >10 µM.

The record behind these values is ChEMBL document CHEMBL1130087, “Phosphodiester amidates of unsaturated nucleoside analogues: synthesis and anti-HIV activity” (J Med Chem, 1997).
